From ChEMBL document CHEMBL1128892, “Pharmacological evaluation of UK-14,304 analogs at cloned human adrenergic receptors” (Bioorg Med Chem Lett, 1995)
Calls of active or inactive are those of the source. No cut-off for these calls is given here.

What was measured:
[1] = biological target: T1, Alpha-2A adrenergic receptor (Homo sapiens, UniProt P08913); experiment: Alpha-2A adrenergic receptor agonistic potency as inhibition of forskolin-stimulated synthesis of cyclic adenosine monophosphate; assay type: functional
T1 sequence (P08913 whole entry): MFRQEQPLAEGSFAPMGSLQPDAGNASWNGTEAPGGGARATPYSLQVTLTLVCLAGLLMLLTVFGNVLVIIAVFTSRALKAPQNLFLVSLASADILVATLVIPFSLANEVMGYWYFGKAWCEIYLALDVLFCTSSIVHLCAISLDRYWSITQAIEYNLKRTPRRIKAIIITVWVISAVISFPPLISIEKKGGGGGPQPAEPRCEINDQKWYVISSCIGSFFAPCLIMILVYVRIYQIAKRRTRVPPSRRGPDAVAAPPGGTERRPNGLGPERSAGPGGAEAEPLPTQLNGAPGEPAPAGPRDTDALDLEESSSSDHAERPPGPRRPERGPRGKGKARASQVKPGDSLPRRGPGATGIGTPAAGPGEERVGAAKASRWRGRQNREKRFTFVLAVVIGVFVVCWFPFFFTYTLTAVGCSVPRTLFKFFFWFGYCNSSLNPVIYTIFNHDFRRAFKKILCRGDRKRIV

[2] = biological target: T2, Alpha-2C adrenergic receptor (Homo sapiens, UniProt P18825); experiment: Alpha-2C adrenergic receptor agonistic potency as inhibition of forskolin-stimulated cyclic adenosine monophosphate synthesis; assay type: functional
T2 sequence (P18825 whole entry): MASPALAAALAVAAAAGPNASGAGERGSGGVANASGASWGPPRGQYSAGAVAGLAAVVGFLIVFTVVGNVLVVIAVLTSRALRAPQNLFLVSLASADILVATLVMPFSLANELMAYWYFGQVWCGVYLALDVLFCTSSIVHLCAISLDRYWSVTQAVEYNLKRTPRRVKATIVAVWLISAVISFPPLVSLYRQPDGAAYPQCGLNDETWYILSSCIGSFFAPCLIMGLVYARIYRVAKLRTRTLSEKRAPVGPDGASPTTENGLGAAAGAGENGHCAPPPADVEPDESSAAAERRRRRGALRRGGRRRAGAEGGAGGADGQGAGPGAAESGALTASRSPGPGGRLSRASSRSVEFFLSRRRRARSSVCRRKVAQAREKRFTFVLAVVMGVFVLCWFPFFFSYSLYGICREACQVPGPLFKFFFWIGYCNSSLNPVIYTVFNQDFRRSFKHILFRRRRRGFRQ

[3] = biological target: T3, Alpha-2B adrenergic receptor (Homo sapiens, UniProt P18089); experiment: Binding affinity for human Alpha-2B adrenergic receptor from cultured Y-1 cells using [3H]rauwolscine; assay type: cell-based
T3 sequence (P18089 whole entry): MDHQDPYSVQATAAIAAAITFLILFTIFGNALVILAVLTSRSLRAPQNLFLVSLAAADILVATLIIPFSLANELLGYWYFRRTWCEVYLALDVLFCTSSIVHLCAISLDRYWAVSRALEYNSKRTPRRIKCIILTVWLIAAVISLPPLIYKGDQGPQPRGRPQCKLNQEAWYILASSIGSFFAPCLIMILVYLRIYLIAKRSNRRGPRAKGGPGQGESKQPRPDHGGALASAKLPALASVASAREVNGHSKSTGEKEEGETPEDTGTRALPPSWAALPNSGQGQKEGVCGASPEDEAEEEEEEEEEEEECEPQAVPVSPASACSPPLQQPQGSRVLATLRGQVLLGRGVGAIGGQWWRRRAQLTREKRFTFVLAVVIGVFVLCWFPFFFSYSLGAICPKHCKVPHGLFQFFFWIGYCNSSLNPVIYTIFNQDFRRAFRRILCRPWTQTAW

[4] = biological target: T4, Alpha-2C adrenergic receptor (Homo sapiens) (UniProt P18825); experiment: Inhibitory activity against Alpha-2C adrenergic receptor relative to norepinephrine
T4 sequence (whole entry): T2 sequence (P18825 whole entry)

[5] = biological target: T3, Alpha-2B adrenergic receptor; experiment: Alpha-2B adrenergic receptor agonistic potency as inhibition of forskolin-stimulated cyclic adenosine monophosphate synthesis; assay type: functional
[6] = biological target: T2, Alpha-2C adrenergic receptor; experiment: Binding affinity for human Alpha-2C adrenergic receptor from cultured LM(tk-) cells using [3H]- prazosin
[7] = biological target: T5, Alpha-1A adrenergic receptor (Homo sapiens, UniProt P35348); experiment: Binding affinity for human Alpha-1A adrenergic receptor from cultured LM(tk-) cells using [3H]-prazosin
T5 sequence (P35348 whole entry): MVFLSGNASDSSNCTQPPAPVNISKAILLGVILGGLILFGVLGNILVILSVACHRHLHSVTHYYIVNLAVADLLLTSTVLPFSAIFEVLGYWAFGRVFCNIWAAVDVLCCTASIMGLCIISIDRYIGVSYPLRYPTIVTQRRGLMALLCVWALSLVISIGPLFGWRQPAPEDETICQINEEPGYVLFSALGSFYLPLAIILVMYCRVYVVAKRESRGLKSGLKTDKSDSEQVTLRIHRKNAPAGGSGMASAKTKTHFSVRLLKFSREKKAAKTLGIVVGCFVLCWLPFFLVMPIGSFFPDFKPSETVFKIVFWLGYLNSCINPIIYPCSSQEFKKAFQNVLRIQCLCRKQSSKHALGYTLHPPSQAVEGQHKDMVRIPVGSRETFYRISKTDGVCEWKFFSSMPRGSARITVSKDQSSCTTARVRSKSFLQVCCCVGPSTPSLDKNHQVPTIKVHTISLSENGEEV

[8] = biological target: T1, Alpha-2A adrenergic receptor; experiment: Binding affinity for human Alpha-2A adrenergic receptor from cultured LM(tk-) cells using [3H]rauwolscine
[9] = biological target: T6, Alpha-2A adrenergic receptor (Homo sapiens) (UniProt P08913); experiment: Inhibitory activity against Alpha-2A adrenergic receptor relative to norepinephrine
T6 sequence (whole entry): T1 sequence (P08913 whole entry)

[10] = biological target: T7, Alpha-1B adrenergic receptor (Homo sapiens, UniProt P35368); experiment: Binding affinity for human Alpha-1B adrenergic receptor from cultured LM(tk-) cells using [3H]prazosin
T7 sequence (P35368 whole entry): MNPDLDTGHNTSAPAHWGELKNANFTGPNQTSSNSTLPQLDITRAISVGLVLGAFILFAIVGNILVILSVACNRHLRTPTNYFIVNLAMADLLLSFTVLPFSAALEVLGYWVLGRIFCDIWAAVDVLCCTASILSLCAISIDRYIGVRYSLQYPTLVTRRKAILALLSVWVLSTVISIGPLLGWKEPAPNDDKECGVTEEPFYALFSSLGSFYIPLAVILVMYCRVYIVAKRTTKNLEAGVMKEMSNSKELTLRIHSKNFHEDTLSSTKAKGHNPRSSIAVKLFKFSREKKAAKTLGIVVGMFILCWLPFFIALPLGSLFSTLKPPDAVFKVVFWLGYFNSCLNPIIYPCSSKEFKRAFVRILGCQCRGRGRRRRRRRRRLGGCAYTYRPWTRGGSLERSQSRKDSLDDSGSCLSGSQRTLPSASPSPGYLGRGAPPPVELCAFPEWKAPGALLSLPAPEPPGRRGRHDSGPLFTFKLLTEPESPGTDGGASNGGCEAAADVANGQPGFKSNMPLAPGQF

[11] = biological target: T8, Alpha-1D adrenergic receptor (Homo sapiens, UniProt P25100); experiment: Binding affinity for human Alpha-1D adrenergic receptor from cultured LM(tk-) cells using [3H]- prazosin
T8 sequence (P25100 whole entry): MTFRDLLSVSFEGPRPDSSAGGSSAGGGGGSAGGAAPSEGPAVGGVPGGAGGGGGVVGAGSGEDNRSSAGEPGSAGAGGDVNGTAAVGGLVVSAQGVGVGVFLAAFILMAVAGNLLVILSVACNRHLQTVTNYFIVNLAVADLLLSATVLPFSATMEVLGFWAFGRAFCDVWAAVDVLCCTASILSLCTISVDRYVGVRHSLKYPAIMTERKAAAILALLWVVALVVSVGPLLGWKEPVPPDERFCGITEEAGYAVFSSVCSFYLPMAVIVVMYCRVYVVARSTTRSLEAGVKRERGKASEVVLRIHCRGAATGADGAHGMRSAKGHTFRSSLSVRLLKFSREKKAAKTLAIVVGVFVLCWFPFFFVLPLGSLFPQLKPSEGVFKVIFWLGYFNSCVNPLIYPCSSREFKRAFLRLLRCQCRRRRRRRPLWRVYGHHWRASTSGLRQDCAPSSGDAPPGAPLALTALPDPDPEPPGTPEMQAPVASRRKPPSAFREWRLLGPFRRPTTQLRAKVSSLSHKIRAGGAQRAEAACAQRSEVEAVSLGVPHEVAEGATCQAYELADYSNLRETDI

[12] = biological target: T6, Alpha-2A adrenergic receptor (Homo sapiens); experiment: Inhibitory activity against Alpha-2A adrenergic receptor relative to norepinephrine at 100 uM; Not active
[13] = biological target: T9, Alpha-2B adrenergic receptor (Homo sapiens) (UniProt P18089); experiment: The Alpha-2B adrenergic receptor agonistic potency for its ability to inhibit forskolin-stimulated synthesis of cyclic adenosine monophosphate at 100 uM concentration; Not active; assay type: functional
T9 sequence (whole entry): T3 sequence (P18089 whole entry)

[14] = biological target: T4, Alpha-2C adrenergic receptor (Homo sapiens); experiment: Inhibitory activity against Alpha-2C adrenergic receptor relative to norepinephrine at 100 uM; Not active
[15] = biological target: T9, Alpha-2B adrenergic receptor (Homo sapiens); experiment: Inhibitory activity against Alpha-2B adrenergic receptor relative to norepinephrine at 100 uM; Not active
[16] = biological target: T6, Alpha-2A adrenergic receptor (Homo sapiens); experiment: Alpha-2A adrenergic receptor agonistic potency as inhibition of forskolin-stimulated cyclic adenosine monophosphate synthesis at 100 uM; Not active; assay type: functional
[17] = biological target: T4, Alpha-2C adrenergic receptor (Homo sapiens); experiment: Alpha-2C adrenergic receptor agonistic potency as inhibition of forskolin-stimulated cyclic adenosine monophosphate synthesis at 100 uM; Not active; assay type: functional
[18] = biological target: T4, Alpha-2C adrenergic receptor (Homo sapiens); conditions: 100 uM
[19] = biological target: T9, Alpha-2B adrenergic receptor (Homo sapiens); experiment: Inhibitory activity against alpha-2B adrenoceptor relative to norepinephrine at 100 uM; Not active
[20] = biological target: T9, Alpha-2B adrenergic receptor (Homo sapiens); conditions: 100 uM
[21] = biological target: T3, Alpha-2B adrenergic receptor; experiment: Binding affinity for human alpha-2B adrenoceptor from cultured Y-1 cells using [3H]rauwolscine; assay type: cell-based

Clc1c(NC2=NCCN2)ccc2nccnc12
EC50 [1]: 2.34 nM | EC50 [2]: 30.9 nM | Ki [3]: 69.2 nM | Intrinsic activity [4]: 1 | EC50 [5]: 174 nM | Ki [6]: 195 nM | Ki [7]: 5130 nM | Ki [8]: 37.2 nM | Intrinsic activity [9]: 1 | Ki [10]: 10500 nM | Ki [11]: 2400 nM

Brc1c(NC2=NCCO2)ccc2nccnc12
Ki [3]: 85100 nM | Intrinsic activity [12]: inactive | Log EC50 [13]: inactive | Intrinsic activity [14]: inactive | Intrinsic activity [15]: inactive | Ki [6]: 49000 nM | Log EC50 [16]: inactive | Log EC50 [17]: inactive | Ki [7]: 91200 nM | Ki [8]: 26300 nM | Ki [10]: 141000 nM | Ki [11]: 102000 nM

c1cnc2cc(NC3=NCCN3)ccc2n1
Ki [3]: 219 nM | Intrinsic activity [12]: inactive | Log EC50 [13]: inactive | Intrinsic activity [14]: inactive | Intrinsic activity [15]: inactive | Ki [6]: 1410 nM | Log EC50 [16]: inactive | Ki [7]: 18200 nM | Ki [8]: 309 nM | Ki [10]: 3240 nM | Ki [11]: 12300 nM | Log EC50 [18]: inactive

Ic1c(NC2=NCCN2)ccc2nccnc12
EC50 [1]: 11.5 nM | EC50 [2]: 55 nM | Intrinsic activity [19]: inactive | Intrinsic activity [4]: 1 | Ki [6]: 407 nM | Ki [7]: 977 nM | Log EC50 [20]: inactive | Ki [8]: 6.76 nM | Intrinsic activity [9]: 1 | Ki [21]: 42.7 nM | Ki [10]: 1910 nM | Ki [11]: 282 nM

Cc1cnc2c(Br)c(NC3=NCCN3)ccc2n1
EC50 [1]: 851 nM | EC50 [2]: 832 nM | Ki [3]: 324 nM | Log EC50 [13]: inactive | Intrinsic activity [15]: inactive | Intrinsic activity [4]: 0.8 | Ki [6]: 646 nM | Ki [7]: > 100000 nM | Ki [8]: 74.1 nM | Intrinsic activity [9]: 1 | Ki [10]: > 100000 nM | Ki [11]: 5010 nM

Brc1c(NC2=NCCS2)ccc2nccnc12
EC50 [1]: 2750 nM | Ki [3]: 17400 nM | Log EC50 [13]: inactive | Intrinsic activity [14]: inactive | Intrinsic activity [15]: inactive | Ki [6]: 28200 nM | Log EC50 [17]: inactive | Ki [7]: 21400 nM | Ki [8]: 10200 nM | Intrinsic activity [9]: 0.9 | Ki [10]: 60300 nM | Ki [11]: 27500 nM
